One data set relates to IL-1β. The experiment in a line: IL-1β gene and protein expression in LPS-stimulated RAW 264.7 cells. It counts as cell-based, mouse. To be noted: 5, 10, 20 μM, LPS 1 μg/ml. As for the experimental part:
IL-1β is one of major factors involved in inflammation and functions to induce the expression of several genes related to inflammation and tissue injury. Thus, the effects of the inventive composition on the expressions of mRNA gene and protein of IL-1β were tested. Specifically, RAW 264.7 cells were pretreated with each of 20, 10 and 5 μM of the inventive composition (thio-Cl-IB-MECA) and treated with LPS (1 μg/ml) to induce inflammatory reactions, followed by culture for 4 hours. The RNA fraction was collected and cultured for 8 hours, and then the protein was collected and subjected to RT-PCR and Western blot.

In data set [1] the test system is HCT 116 cells. The experiment in a line: Western blot of cell cycle regulation-related proteins and Wnt signaling in HCT 116 cells. The class given is cell-based, human. To be noted: 40 μM. As for the experimental part:
Because it was confirmed that thio-Cl-IB-MECA arrests the G1 phase of human colorectal cancer HCT 116 cells, a test was carried out to examine whether cell cycle regulation-related proteins involved in the G1 phase are expressed and to examine the expression of Wnt-related proteins in order to examine whether the inhibitory effect of thio-Cl-IB-MECA on the proliferation of cancer cells is attributable to regulation of the signaling pathway.
Specifically, HCT 116 cells were diluted with 10% FBS-containing medium to a density of 1×10^6 cells per 100 mm culture dish and cultured under the conditions of 37° C. and 5% CO2 for 24 hours, followed by washing twice with PBS. Thio-Cl-IB-MECA was diluted in 10% FBS-containing medium to a concentration of 40 μM, and then 10 ml of the culture medium prepared in the 100 mm culture dish was added thereto and cultured for a given period. The non-adherent cells and adherent cells in the cell medium were collected and washed twice with PBS, after which the cells were suspended in boiling cell lysis buffer and heated at 100° C. for 5 minutes. The cells were cooled and then stored at […], and the stored cells were thawed at 37° C. immediately before use in protein quantification and electrophoresis. Protein quantification was performed using the BCA method, and […] of protein was electrophoresed on 8-12% SDS-polyacrylamide gel at 150 V for 110 minutes. The gel at the desired site was cut and transferred to a PVDF (polyvinylidene fluoride) for 1 hour, and after which it was washed twice with PBST and stirred in blocking buffer at room temperature for 1 hour. Then, the membrane was washed three times with PBST for 5 minutes each time, after which primary antibody was diluted at a ratio of 1:1,000-1:2,000 with 3% skimmed milk/PBST, and it was sealed together with the membrane and incubated with stirring at 4° C. for 12 hours or more. The membrane was washed 2-3 times with PBST for 5 minutes each time, after which HRP-conjugated secondary antibody was diluted at a ratio of 1:1,500-1:2,000 and incubated with the membrane at room temperature for 2-3 hours. The membrane was washed three times with PBST for 5 minutes each time and treated with a Western blot substrate (WESTSAVE Up™), and the produced luminescence was examined using LAS-3000.
A general note: Immunoblotting shows a protein as a band on a membrane.

Data set [2] has as its system human colorectal cancer HCT 116 cells. The experiment in a line: Cell cycle analysis (FACS) in HCT 116 cells. As to conditions: 40 μM, 24 and 36 hours. The class given is cell-based. The method, then:
Cells were treated with 40 μM of thio-Cl-IB-MECA and cultured for 24 and 36 hours, and the cell cycle of the cells was analyzed by flow cytometer analysis (FACS). Specifically, cells were diluted with 10% FBS-containing medium to a density of 1.0×10^6 cells per 100 mm culture dish and cultured under the conditions of 37° C. and 5% CO2 for 24 hours, followed by washing twice with PBS. Thio-Cl-IB-MECA was diluted in 10% FBS-containing medium to a concentration of 40 μM, and then 10 ml of the culture medium prepared in the 100 mm culture dish was added thereto and cultured for a given time. The non-adherent cells and adherent cells in the cell medium were collected and washed twice with PBS, after which 500 μL of 100% cold methanol was added thereto and the cells were fixed at 4° C. The cells were washed twice with PBS and allowed to stand in RNase A-containing solution for 30 minutes, after which the cells were stained with propidium iodide (PI) buffer for 5 minutes. After removal of the PI buffer, the cells were transferred into a polystyrene round-bottom tube, and the cycle of the cells was analyzed by FACScalibur® flow cytometry.

In data set [3] the test system is HCT 116 cells. The data set is described as follows: RT-PCR of cell cycle regulation-related genes in HCT 116 cells. To be noted: 40 μM. It counts as cell-based, human. As for the experimental part:
A test was carried out to examine whether cell cycle regulation-related genes involved in the G1 phase are expressed.
Specifically, HCT 116 cells were diluted with 10% FBS-containing medium to a density of 1×10^6 cells per 100 mm culture dish and cultured under the conditions of 37° C. and 5% CO2 for 24 hours, followed by washing twice with PBS. Thio-Cl-IB-MECA was diluted in 10% FBS-containing medium to a concentration of 40 μM, and then 10 ml of the culture medium prepared in the 100 mm culture dish was added thereto and cultured for a given time. The non-adherent cells and adherent cells in the cell medium were collected and washed twice with PBS. Then, the cells were lysed with TRI reagent (TRIzol), after which CHCl3 was added thereto and RNA was extracted from the cells and precipitated using isopropyl alcohol. The RNA precipitate was washed with 70% ethanol and dried in air, after which it was suspended in nuclease-free water. The suspension was heated at 55° C. for 10 minutes and then at 70° C. for 5 minutes, so that the RNA was present as a single chain. The total RNA was quantified with NanoDrop, after which it was diluted to a concentration of 1 μg/μl and made into cDNA using avian myeloblastosis virus (AMV) reverse transcriptase and oligo (dT)15 primers. […]

The test system of another data set is ICR white mice. The experiment in a line: Animal toxicity test, single oral dose. The class given is in vivo. As to conditions: oral 1500 mg/kg, n=10. As for the experimental part: In order to examine the toxicities of thio-Cl-IB-MECA and thio-IB-MECA, each of the compounds was administered orally to ICR white mice (n=10, 25 g) at a dose of 1500 mg/kg weight, and the behavioral change and state of the mice were observed.

For the compound `CNC(=O)[C@H]1S[C@@H](n2cnc3c(NCc4cccc(I)c4)nc(Cl)nc32)[C@H](O)[C@@H]1O` [thio-Cl-IB-MECA, 2-chloro-N^6-(3-iodobenzyl)-4′-thioadenosine-5′-N-methyluronamide], the “expression of IL-1β gene” value in the data set on IL-1β (RT-PCR) is given as “concentration-dependently inhibited”. In addition, the “expression of IL-1β protein” value in the data set on IL-1β (Western blot) was “concentration-dependently inhibited”. Besides, in the data set with HCT 116 cells [1], the Wnt signaling pathway result is “inhibited the Wnt signaling pathway”; the “expression of Rb and p-Rb” value is “also inhibited the expression”; the “expression of cyclin D1, cyclin A and cyclin E” value is listed as “inhibited the expression”; the “expression of p53” value is “increased the expression”. Moreover, the “G1 phase of cell cycle, HCT 116” value in data set [2] is “an increase in the G1 phase”. Further, in the data set with HCT 116 cells [3], the “gene expression of cyclin D1 and c-Myc” value is reported as “inhibited the expression”; the “gene expression of p21 and p53” value is “increased the expression”. The “survival and side effects up to 7 days after administration” value with ICR white mice is listed as “survived healthfully without particular side effects”.
